Data as given in US20150105324A1, “COMPOSITIONS AND METHODS FOR TREATING PTSD AND RELATED DISEASES” (INDIANA UNIVERSITY RESEARCH AND TECHNOLOGY CORPORATION, priority 2012, published 2015).

Assays:
[1] = test system: rats (conditioned fear, percent time freezing); assay: Conditioned Fear Test; type: in vivo, rat; settings: for acquisition of conditioned fear / fear extinction: compared to respective vehicle groups; for fear extinction: post conditioning treatment; for percent time freezing on test day 1 / percent time freezing during acquisition / percent time freezing during recall: rats; for percent time freezing on test day 1: after fear conditioning, FIGS. 1 and 2; for percent time freezing on test day 1 / percent time freezing during acquisition: vs vehicle; for percent time freezing during acquisition: acquisition of fear conditioning; for percent time freezing during recall: recall on day 3; for conditioned fear response 24 hours later (day 3 fear recall): treatment 5-60 min following the day 2 conditioning session
Experimental: Conditioned Fear Test. The conditioning chamber (Hamilton-Kinder, Paolo Alto, Calif.) is equipped to present light and tone cues along with a video camera set up to record behavior. The entire chamber is enclosed in a sound attenuated box. The animals went through 5 days of experimentation: Day 1 Habituation; Day 2 Conditioning; Day 3 Fear recall testing; Day 4 Extinction Training; and Day 5 Extinction Recall Test. Day 1 Habituation: Rats are exposed to the chambers for 10 min. Day 2 Conditioning: Rats are given five presentations of the tone CS (4 kHz, 80 dB, 20 sec) each co-terminating with a 0.8 mA foot shock lasting 0.5-s (US). The first CS-US pairing is presented 120 s into the session and the inter-trial interval (ITI) between CS-US presentations is 105 s on average (range 90-120). Conditioning sessions last about 11 minutes. Day 3 Fear recall tests: Twenty-four hours following the acquisition training, rats are given five 20-s CS presentations in the absence of the US. The first tone is presented 120 s into the session and the inter-trial interval (ITI) between CS-US presentations is 105 s on average (range 90-120). Percent time spent freezing is measured during each tone as an indication of fear recall. Recall test sessions last about 11 minutes. Extinction Training: Rats are exposed to 20 presentations of the CS in the absence of the US (mean ITI 180 s, range 120 to 240 s). Extinction Recall Test: 10 presentations of the CS only (mean ITI 180 s, range 120 to 240 s) are given 24 hrs after extinction.

[2] = test system: cortical neurons stimulated with glutamate and glycine; assay: Cell viability (LDH release) assay, glutamate/glycine exposed neurons; type: cell-based; settings: FIG. 7; for glutamate receptor induced cell death: primary neuronal slices
Experimental: Cell viability assays. An LDH release assay was used for the measurement of cell viability. Cortical neurons were stimulated with glutamate and glycine in Mg^2+-free Locke's buffer. The neurons were washed with the buffer and incubated in cell-culture media for 12 h. Subsequently, LDH in the cell-culture media and total LDH after cell lysis were measured according to the manufacturer's instructions. LDH release was defined as ratio of LDH in the media to total LDH and normalized to the fold of control.

nNOS-PSD95 complex = assay: Co-immunoprecipitation of nNOS-PSD95 complex in neuronal cultures; type: cell-based
Experimental: (§1) Co-immunoprecipitation. Cultured neurons, organotypic hippocampal slice cultures (OHSCs) or the cortices of mice were lysed and centrifuged. The supernatant was preincubated with protein G-Sepharose beads (Sigma-Aldrich) and then centrifuged to obtain the target supernatant. The antibodyconjugated protein G-Sepharose beads were incubated with the target supernatant, centrifuged, washed and heated the beads to elute bound proteins and analyzed proteins by immunoblotting.
(§2) Coimmunoprecipitation. Neurons were washed in PBS twice, and then lysed in 400 μl buffer A (50 mM Tris-HCl [pH 7.4], 150 mM NaCl, 1 mM EDTA-Na, 1% NP-40, 0.02% sodium azide, 0.1% SDS, 0.5% sodium deoxycholate, 1% PMSF, 1‰ aprotinin, 1‰ leupeptin, and 0.5‰ pepstatin A). The lysates were centrifugated at 12,000×g for 15 min at 4° C. […] Proteins were analyzed by immunoblotting.
(§3) Samples were immunoprecipitated and analyzed by western blotting with the indicated antibodies (IP for nNOS, and WB for PSD-95), and analyzed for (a) nNOS-PSD-95 complex amounts in the cortex of mice subjected to 90 min MCAO and 30 min reperfusion (n=3), as shown in FIG. 5A in wild type mice after MCAO, and (b) nNOS-PSD-95 complex amounts in neurons exposed to 50 μM glutamate with 10 μM glycine for 30 min (n=3). […]

nNOS-PSD95 interaction = target: T1, nNOS-PSD95 interaction (Mus musculus, UniProt Q9Z0J4); assay: Co-immunoprecipitation of nNOS-PSD95 complex in cortex of mice (MCAO/reperfusion); type: in vivo
T1 construct: from tissue; host or cells: mouse cortex
Experimental: as §1, §2, §3

nNOS-CAPON interaction = target: T2, nNOS-CAPON interaction (Mus musculus, UniProt Q9Z0J4); assay: Co-immunoprecipitation of nNOS-CAPON in ischemic cortexes; type: in vivo; settings: 1.5 mg kg-1 i.v. 15 min before MCAO
T2 construct: from tissue; host or cells: mouse ischemic cortex
Experimental: (§4) Coimmunoprecipitation. Neurons were washed in PBS twice, and then lysed in 400 μl buffer A (50 mM Tris-HCl [pH 7.4], 150 mM NaCl, 1 mM EDTA-Na, 1% NP-40, 0.02% sodium azide, 0.1% SDS, 0.5% sodium deoxycholate, 1% PMSF, 1‰ aprotinin, 1‰ leupeptin, and 0.5‰ pepstatin A). The lysates were centrifugated at 12,000×g for 15 min at 4° C. The OHSCs or cortex of mice was homogenized in ice-cold lysis buffer A. After lysis for 15 min, samples were centrifuged at 20,000×g for 15 min. The supernatant were preincubated for 1 h at 4° C. with 0.025 ml of protein G-sepharose beads (Sigma-Aldrich) and then centrifuged to remove proteins that adhered nonspecifically to the beads and obtain the target supernatant for following IP experiment. Protein G Sepharose beads were incubated with antibodies (rabbit antibody to nNOS, 1:100, Affinity BoReagents; rabbit antibody to PSD95, 1:100, Cell Signaling Technology; and rabbit antibody to NR2B antibody, 1:200, Chemicon) for 3-4 h. The antibodies-conjugated protein G-sepharose beads and the target supernatant were added for incubation overnight. Immune complexes were isolated by centrifugation, washed 4 times with 0.05 M HEPES buffer, pH 7.1, containing 0.15% Triton X-100, 0.15 M NaCl, and 0.1×10^−3 M sodium orthovanadate, and bound proteins were eluted by heating at 100° C. in loading buffer. Proteins were analyzed by immunoblotting. […]

PSD95-SynGAP interaction = target: T3, PSD95-SynGAP interaction (Mus musculus, UniProt Q62108); assay: Co-immunoprecipitation of PSD95-SynGAP in ischemic cortexes; type: in vivo; settings: 1.5 mg kg-1 i.v. 15 min before MCAO
T3 construct: from tissue; host or cells: mouse ischemic cortex
Experimental: as §4

[3] = test system: NOS (total NOS, nNOS) in homogenates from the cortex of mice; assay: NOS activity assay; type: biochemical, mouse; settings: 10 μM, 30 min
[4] = test system: NMDARs EPSCs of CA1 pyramidal neurons; assay: Electrophysiological recordings in hippocampal slices; type: cell-based; settings: 1.0 μM, rat hippocampal slices, low-Mg2+ ACSF
rats [5] = assay: Open Field Test of Anxiety; type: in vivo, rat; settings: i.p. 60 min prior to 5 min test; IC87201 4 mg/kg, ZL006 10 mg/kg; vs vehicle
Experimental: (§5) Open Field Test of Anxiety. Adult male rats are evaluated in a conventional open field test. Compounds described herein are evaluated compared to vehicle controls. Animals are observed for duration of time spent in regions of the open field (inner region versus outer region) and line crossings during a […] period following a systemic injection of vehicle or a test compound.
(§6) Results. Animals are systemically pre-treated by i.p. injections with two different agents that are known to disrupt the nNOS-PSD95 interaction, IC87201 (4 mg/kg) and ZL006 (10 mg/kg), 60 min prior to a 5 min open field test immediately followed by a 5 min social interaction test. […] (Inner time F(2,17)=0.4, p=0.678; Outer time F(2,17)=0.4, p=0.678; Line crossings F(2,17)=1.0, p=0.405; n=6/group).

rats [6] = assay: Social Interaction test; type: in vivo, rat; settings: i.p. 60 min prior; IC87201 4 mg/kg, ZL006 10 mg/kg; vs vehicle
Experimental: as §5, with “Social Interaction.” for “Open Field Test of Anxiety.”, “social interaction assay.” for “open field test.”, “of” for “of the”, “field test” for “field”
as §6

[7] = test system: rats (conditioned fear, percent time freezing); assay: Conditioned Fear Test; type: in vivo, rat; settings: extinction on day 2, vs vehicle
[8] = 1.5 mg/kg i.v., 15 and 60 min after dosing; FIG. 8 (Zhou 2010); cited from earlier work
[9] = test system: NMDA-induced increase of cGMP in primary cultured hippocampal neurons; assay: NMDA-induced increase in cGMP in primary rat hippocampal neurons; type: cell-based
Experimental: (§7) NMDA-induced increase in cGMP in primary rat hippocampal neurons Neonatal rat hippocampal cultures were prepared according to Brewer (1997). Cells were cultured for 14-21 days before testing. NMDA ([…]) increased cGMP (measured by a cGMP-RIA kit from Perkin-Elmer) within 2-15 min of addition. The NMDA receptor antagonist, MK-801, and a NOS catalytic inhibitor, L-NAME, were used as positive controls.
as §7, with “neurons.” for “neurons”

[10] = target: PSD95-cypin protein-protein interaction (Homo sapiens, UniProt P78352); settings: plate binding assay (Florio 2009); cited from earlier work
[11] = test system: cGMP production induced by a NO donor; settings: (Florio 2009); cited from earlier work

T1 sequence (Q9Z0J4 whole entry, the tested form may be a part): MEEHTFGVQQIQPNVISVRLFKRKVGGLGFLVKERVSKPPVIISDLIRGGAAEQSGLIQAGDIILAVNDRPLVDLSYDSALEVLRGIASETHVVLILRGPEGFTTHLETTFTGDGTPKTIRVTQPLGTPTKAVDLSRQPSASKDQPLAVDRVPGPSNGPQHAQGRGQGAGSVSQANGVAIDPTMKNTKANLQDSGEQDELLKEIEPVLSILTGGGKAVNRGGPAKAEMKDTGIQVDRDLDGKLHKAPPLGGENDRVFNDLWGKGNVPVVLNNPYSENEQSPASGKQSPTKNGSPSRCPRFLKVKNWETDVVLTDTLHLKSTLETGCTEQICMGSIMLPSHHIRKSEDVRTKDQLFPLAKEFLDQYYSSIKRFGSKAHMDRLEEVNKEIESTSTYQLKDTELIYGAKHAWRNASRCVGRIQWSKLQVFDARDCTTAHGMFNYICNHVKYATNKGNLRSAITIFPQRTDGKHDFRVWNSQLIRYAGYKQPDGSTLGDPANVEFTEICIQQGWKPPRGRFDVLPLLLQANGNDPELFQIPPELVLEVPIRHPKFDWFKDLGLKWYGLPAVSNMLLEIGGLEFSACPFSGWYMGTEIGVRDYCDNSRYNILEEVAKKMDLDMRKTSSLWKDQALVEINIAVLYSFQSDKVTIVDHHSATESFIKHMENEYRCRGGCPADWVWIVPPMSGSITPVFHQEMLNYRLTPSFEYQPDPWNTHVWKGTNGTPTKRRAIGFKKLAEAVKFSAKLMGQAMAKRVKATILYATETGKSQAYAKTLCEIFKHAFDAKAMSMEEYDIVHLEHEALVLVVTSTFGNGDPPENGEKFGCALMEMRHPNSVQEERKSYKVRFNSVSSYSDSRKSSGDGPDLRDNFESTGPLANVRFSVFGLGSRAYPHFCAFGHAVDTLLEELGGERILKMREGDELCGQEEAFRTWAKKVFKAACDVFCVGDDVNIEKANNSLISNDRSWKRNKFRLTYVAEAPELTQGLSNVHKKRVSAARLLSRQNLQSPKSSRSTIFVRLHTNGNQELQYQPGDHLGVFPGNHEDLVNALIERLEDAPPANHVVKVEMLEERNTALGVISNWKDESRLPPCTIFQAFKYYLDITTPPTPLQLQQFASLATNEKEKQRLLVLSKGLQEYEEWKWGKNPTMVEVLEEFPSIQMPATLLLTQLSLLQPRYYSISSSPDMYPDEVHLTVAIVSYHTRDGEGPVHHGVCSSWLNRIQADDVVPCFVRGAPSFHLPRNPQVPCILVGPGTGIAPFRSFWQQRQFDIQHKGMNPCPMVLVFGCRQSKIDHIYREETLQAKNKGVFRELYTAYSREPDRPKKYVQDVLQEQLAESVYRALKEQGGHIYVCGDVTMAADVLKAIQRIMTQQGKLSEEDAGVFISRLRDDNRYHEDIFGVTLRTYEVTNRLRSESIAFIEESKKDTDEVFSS
T2 sequence (Q9Z0J4 whole entry): as the sequence (Q9Z0J4 whole entry, the tested form may be a part) above
PSD95-cypin protein-protein interaction, sequence (P78352 whole entry): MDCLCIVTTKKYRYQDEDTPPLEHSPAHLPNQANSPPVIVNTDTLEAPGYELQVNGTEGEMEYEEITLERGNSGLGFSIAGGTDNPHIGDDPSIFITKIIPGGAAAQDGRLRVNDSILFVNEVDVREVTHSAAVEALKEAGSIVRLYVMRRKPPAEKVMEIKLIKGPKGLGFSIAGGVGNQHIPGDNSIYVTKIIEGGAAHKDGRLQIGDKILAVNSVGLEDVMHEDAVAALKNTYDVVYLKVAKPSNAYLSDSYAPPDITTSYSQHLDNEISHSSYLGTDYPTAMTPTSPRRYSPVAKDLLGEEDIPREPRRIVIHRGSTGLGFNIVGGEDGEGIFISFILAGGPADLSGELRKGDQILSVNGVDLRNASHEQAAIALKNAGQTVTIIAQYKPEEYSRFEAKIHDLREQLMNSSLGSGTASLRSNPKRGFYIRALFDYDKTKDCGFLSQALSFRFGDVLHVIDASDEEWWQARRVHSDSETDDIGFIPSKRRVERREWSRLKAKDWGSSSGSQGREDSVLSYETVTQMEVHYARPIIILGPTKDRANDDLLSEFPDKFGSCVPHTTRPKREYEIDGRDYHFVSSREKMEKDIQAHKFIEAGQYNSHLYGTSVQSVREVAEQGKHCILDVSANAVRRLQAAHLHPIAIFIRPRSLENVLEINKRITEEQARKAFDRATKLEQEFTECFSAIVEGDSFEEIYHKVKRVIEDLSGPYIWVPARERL
T3 sequence (Q62108 whole entry): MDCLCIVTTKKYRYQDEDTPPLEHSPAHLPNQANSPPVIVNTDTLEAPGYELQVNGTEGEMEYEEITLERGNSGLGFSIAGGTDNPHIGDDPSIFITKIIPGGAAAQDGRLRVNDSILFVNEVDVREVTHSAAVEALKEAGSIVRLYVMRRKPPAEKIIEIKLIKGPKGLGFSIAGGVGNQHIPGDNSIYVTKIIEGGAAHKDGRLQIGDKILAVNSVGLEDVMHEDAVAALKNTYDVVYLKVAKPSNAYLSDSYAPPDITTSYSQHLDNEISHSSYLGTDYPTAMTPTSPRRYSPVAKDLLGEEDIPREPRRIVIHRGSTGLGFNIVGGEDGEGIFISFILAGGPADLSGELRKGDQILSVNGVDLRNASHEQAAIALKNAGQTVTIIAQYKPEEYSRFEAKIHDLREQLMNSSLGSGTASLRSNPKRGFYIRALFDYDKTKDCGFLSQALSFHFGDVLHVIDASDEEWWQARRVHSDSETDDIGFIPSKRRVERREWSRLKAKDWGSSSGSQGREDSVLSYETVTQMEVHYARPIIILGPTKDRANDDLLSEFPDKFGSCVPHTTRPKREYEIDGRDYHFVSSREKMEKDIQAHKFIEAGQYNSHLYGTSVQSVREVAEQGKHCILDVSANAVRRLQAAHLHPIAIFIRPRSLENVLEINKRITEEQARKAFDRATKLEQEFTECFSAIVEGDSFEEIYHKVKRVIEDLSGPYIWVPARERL

duration of time spent in regions of the open field (inner region versus outer region) (rats [5])	number of line crossings (rats [5])	SMILES	acquisition of conditioned fear [1]	fear extinction [1]	percent time freezing on test day 1 [1]	percent time freezing during acquisition [1]	percent time freezing during recall ([1]; data not shown)	conditioned fear response 24 hours later (day 3 fear recall) [1]	glutamate receptor induced cell death [2]	social interaction duration (rats [6])	percent time freezing during extinction [7]	other results
not observed a significant difference	not observed a significant difference	O=C(O)c1ccc(NCc2cc(Cl)cc(Cl)c2O)cc1O [ZL006]	identical acquisition of conditioned fear	normal patterns of fear extinction	reduced the percent time freezing on test day 1	Neither IC8701 nor ZL006 altered the percent time freezing	Neither IC8701 nor ZL006 altered the percent time freezing	significant attenuation of conditioned fear response	disrupt nNOS downstream signaling	not observed a significant difference	Neither IC8701 nor ZL006 altered the percent time freezing	freezing, extinction ([1]; 10 mg/kg i.p., after the acquisition day, 1 hour prior to the consolidation day, FIG. 3): improved extinction; freezing, recall ([1]; 10 mg/kg i.p., after the acquisition day, 1 hour prior to the consolidation day, data not shown): improved recall; NMDAR-dependent excitotoxicity (lactate dehydrogenase release) and cerebral ischemia ([2]; cultured neurons exposed to 50 μM glutamate with 10 μM glycine for 30 min): prevents NMDAR-dependent excitotoxicity and cerebral ischemia; co-immunoprecipitation of nNOS-PSD95 complex (nNOS-PSD95 complex): inhibits the in co-immunoprecipitation of nNOS-PSD95 complex; nNOS-PSD95 interaction in the non-ischemic cortex (nNOS-PSD95 interaction; non-ischemic cortex, n=3, ZL006 vs vehicle): did not show a significant effects; ischemic induced increase in nNOS-PSD95 interaction (nNOS-PSD95 interaction; wild type mice, MCAO and reperfusion): blocks the ischemic induced increase in nNOS-PSD95 interaction; co-immunoprecipitation of nNOS-Capon interaction (nNOS-CAPON interaction): does not inhibit; co-immunoprecipitation of PSD95-SynGAP interaction (PSD95-SynGAP interaction): does not inhibit; NOS activity / NOS catalytic activity [3]: does not inhibit NOS activity; NMDARs EPSCs [4]: does not inhibit NMDARs EPSCs; penetration in the CNS (concentrations in serum, CSF and brain tissue) [8]: significant penetration in the CNS
not observed a significant difference	not observed a significant difference	Oc1c(Cl)cc(Cl)cc1CNc1ccc2[nH]nnc2c1 [IC87201, 2-((1H-benzo[d][1,2,3]triazol-5-ylamino)methyl)-4,6-dichlorophenol]	identical acquisition of conditioned fear	normal patterns of fear extinction	reduced the percent time freezing on test day 1	Neither IC8701 nor ZL006 altered the percent time freezing	Neither IC8701 nor ZL006 altered the percent time freezing	significant attenuation of conditioned fear response	disrupt nNOS downstream signaling	improvement in social interaction duration	Neither IC8701 nor ZL006 altered the percent time freezing	attenuation of NMDA-induced increases in cGMP [9]: dose-dependently attenuated NMDA-induced increases in cGMP; IC50 ([9]; Rattus norvegicus, Hippocampal neuron, n=14-20, FIG. 6, read-out: IC50, attenuation of NMDA-induced increase of cGMP): 2700 nM; disruption of PSD95-cypin protein-protein interaction [10]: does not disrupt; effect on cGMP production induced by a NO donor [11]: no effect
